Data from patent EP4603105A1, “PHARMACEUTICAL COMPOSITION CONTAINING CYCLIC COMPOUND HAVING SELECTIVE KRAS INHIBITORY EFFECT AGAINST HRAS AND NRAS” (CHUGAI SEIYAKU KABUSHIKI KAISHA, priority 2022, dated 2024).
Where a SMILES comes first, the peptide text is derived from it. Bridges are numbered along the chain shown (N, C = ends). [ ]: non-standard residue; d: D form. The star is where a group is joined. hPhe(3,5-F2-4-CF3) = N[C@@H](CCc1cc(F)c(C(F)(F)F)c(F)c1)C(=O)O; NPrPhe(4-CF3) = CCCN[C@@H](Cc1ccc(C(F)(F)F)cc1)C(=O)O; NMeGly(cPent) = CN[C@H](C(=O)O)C1CCCC1; Nva(3-Et) = CCC(CC)[C@H](N)C(=O)O; NMeD = CN[C@@H](CC(=O)O)C(=O)O; NMeL = CN[C@@H](CC(C)C)C(=O)O; Morpholide = C1CN(*)CCO1; Ac5c = NC1(C(=O)O)CCCC1; Aze = O=C(O)[C@@H]1CCN1; Sar = CNCC(=O)O

Experiments:
HRAS wild-type protein = HRAS wild-type protein (Homo sapiens, UniProt P01112); assay: Binding to HRAS by surface plasmon resonance (SPR), KD and KD ratio to KRAS
Sequence of HRAS wild-type protein (P01112 whole entry): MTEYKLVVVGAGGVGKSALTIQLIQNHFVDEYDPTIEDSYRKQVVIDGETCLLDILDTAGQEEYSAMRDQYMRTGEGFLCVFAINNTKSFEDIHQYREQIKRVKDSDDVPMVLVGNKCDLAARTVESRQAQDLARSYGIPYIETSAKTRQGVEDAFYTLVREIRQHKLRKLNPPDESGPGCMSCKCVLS
Method in brief: (§1)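 Each cycle, GDP-bound biotin-Avi RAS was captured (~100–300 RU), compound concentrations were injected low to high for 75 s each at 100 µL/min, then the chip was regenerated. Buffer: HBS pH 7.4, 10 mM MgCl2, 10 µM GDP, 1 mM DTT, 4% DMSO; 30°C. KD from a 1:1 binding model.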

[1] = molecular target: GDP-bound NRAS wild-type protein (Homo sapiens, UniProt P01111); assay: Binding to NRAS by surface plasmon resonance (SPR), KD and KD ratio to KRAS
Sequence of GDP-bound NRAS wild-type protein (P01111 whole entry): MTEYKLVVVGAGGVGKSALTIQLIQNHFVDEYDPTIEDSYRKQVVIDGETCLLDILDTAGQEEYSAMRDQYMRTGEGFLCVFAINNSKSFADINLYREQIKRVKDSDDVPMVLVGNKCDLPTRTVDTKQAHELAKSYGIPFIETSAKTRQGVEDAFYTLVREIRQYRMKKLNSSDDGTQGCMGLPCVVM
Method in brief: as §1

[2] = molecular target: GDP-bound KRAS wild-type protein (Homo sapiens, UniProt P01116); assay: Binding to KRAS by surface plasmon resonance (SPR), dissociation constant KD
Sequence of GDP-bound KRAS wild-type protein (P01116 1-188 isoform P01116-2): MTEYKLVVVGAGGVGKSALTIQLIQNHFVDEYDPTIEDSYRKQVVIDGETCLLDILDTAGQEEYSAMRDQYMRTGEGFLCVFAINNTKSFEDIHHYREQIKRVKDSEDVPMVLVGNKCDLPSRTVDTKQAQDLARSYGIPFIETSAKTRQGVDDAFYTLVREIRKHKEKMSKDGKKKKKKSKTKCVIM
Protocol: Surface plasmon resonance was used to analyze the binding affinity of compounds for KRAS, NRAS, and HRAS. The apparatus used was Biacore 8K, 8K+, or T200 (GE Healthcare), and the running buffer used was HBS (10 mM HEPES-NaOH, 150 mM NaCl, pH 7.4) containing 1 mM DTT, 10 mM MgCl2, 0.01% Tween 20, 10 µM GDP, and 4% DMSO.
Biotinylated Avi-tag fusion KRAS, NRAS, and HRAS proteins were expressed in E. coli BL21 (DE3) strains, and after cells were homogenized, they were purified using Streptavidin Mutein Matrix and Superdex 75. After purification, GDP-loaded KRAS, NRAS, and HRAS proteins were immobilized on the surface of Sensor Chip CAP (Cytiva) coated with Biotin CAPture Reagent in an immobilization amount of about 100 to 300 RU. Binding of each compound was evaluated by the Single Cycle Kinetics method, and a running buffer or a compound solution was added to the RAS protein non-immobilized surface and the immobilized surface to obtain a binding response. The flow rate was set to 100 µL/min, and in the compound-adding cycle, compound solutions having different concentrations were intermittently added for 75 seconds each, starting from a low concentration. […] In the blank cycle, a running buffer was intermittently added and not the compound solution. The Biotin CAPture Reagent and RAS proteins were immobilized for each cycle, and at the end of each cycle, the sensor chip was regenerated by the regeneration solution appended to the Biotin CAPture Kit (Cytiva). Measurement was carried out at 30°C.
The resulting sensorgram was subjected to curve fitting based on a 1:1 binding model on Biacore Insight Evaluation Software or T200 Evaluation Software, and thereby the dissociation constant KD of each compound with respect to KRAS, NRAS, and HRAS was determined. […] Blank indicates a compound from which the KD value with respect to NRAS or HRAS was not obtained.

[3] = test system: human lung cancer strain NCI-H441; type: cell-based
Method in brief: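 Signal came from […] measured per well once the reagent was added. Beforehand, cells were cultured at 37°C and 5% carbon dioxide on a compound series serially diluted in dimethyl sulfoxide.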

[4] = ratio of KD for HRAS wild-type protein to KD for KRAS
[5] = ratio of KD for GDP-bound NRAS wild-type protein to KD for KRAS
[6] = Single Cycle Kinetics, 1:1 binding model

| SMILES | HRAS /KRAS (HRAS wild-type protein; [4]) | NRAS /KRAS [1, 5] | Kd ([2]; Single Cycle Kinetics) [nM] | IC50 [3] [nM] | Kd ([2]; 1:1 binding model) [nM] | HRAS /KRAS (HRAS wild-type protein; ratio of the KD value with respect to HRAS wild-type protein to the KD value with respect to KRAS) | NRAS /KRAS ([1]; ratio of the KD value with respect to GDP-bound NRAS wild-type protein to the KD value with respect to KRAS) | Kd [2, 6] [nM] | HRAS /KRAS (HRAS wild-type protein; ratio of KD value for HRAS wild-type protein to KD value for KRAS (SPR)) | NRAS /KRAS ([1]; ratio of KD value for GDP-bound NRAS wild-type protein to KD value for KRAS (SPR)) |
| --- | --- | --- | --- | --- | --- | --- | --- | --- | --- | --- |
| CCCN1C(=O)CN(C)C(=O)[C@@H]2CCN2C(=O)[C@H](C(CC)CC)NC(=O)[C@H](CC(C)C)N(C)C(=O)C[C@@H](C(=O)N2CCOCC2)N(C)C(=O)[C@H](C2CCCC2)N(C)C(=O)C2(CCCC2)NC(=O)[C@@H]2CCCN2C(=O)[C@H](CCc2cc(F)c(C(F)(F)F)c(F)c2)NC(=O)CN(C)C(=O)[C@@H]1Cc1ccc(C(F)(F)F)cc1 [PP0785] ([NMeL][Nva(3-Et)][Aze][Sar][NPrPhe(4-CF3)][Sar][hPhe(3,5-F2-4-CF3)]P[Ac5c][NMeGly(cPent)][NMeD]-Morpholide; lactam N-11) | B (a compound having 3 or more and less than 10 is denoted as B) | B (a compound having 3 or more and less than 10 is denoted as B) | 3 | 324 |  |  |  |  |  |  |
| CCC[C@H]1C(=O)N[C@@H](C2CCOCC2)C(=O)N(C)CC(=O)N(C)[C@H]2C/C=C\CCN(C2=O)[C@@H](Cc2ccc(C)cc2)C(=O)N(C)CC(=O)N[C@@H](CCc2ccc(C(F)(F)F)c(Cl)c2)C(=O)N2C[C@H](OCC)C[C@H]2C(=O)NC2(CC(C)(C)C2)C(=O)N(C)[C@@H](C2CCCC2)C(=O)N(C)[C@H](C(=O)N(C)C)CC(=O)N1C [PP3002] | A (a compound having 10 or more and less than 20 is denoted as A) | A (a compound having 10 or more and less than 20 is denoted as A) |  | 128 | 2.1 |  |  |  |  |  |
| CCO[C@@H]1C[C@H]2C(=O)NC3(CC(C)(C)C3)C(=O)N(C)[C@@H](C3CCCC3)C(=O)N(C)[C@H](C(=O)N(C)CC)CC(=O)N(C)[C@@H]([C@@H](C)OC)C(=O)N[C@@H]([C@@H](C)CC)C(=O)N(C)CC(=O)N(C)[C@H]3C/C=C\CCN(C3=O)[C@@H](Cc3ccc(C)cc3)C(=O)N(C)CC(=O)N[C@@H](CCc3cc(F)c(C(F)(F)F)c(F)c3)C(=O)N2C1 [PP3178] | A (a compound having 10 or more and less than 20 is denoted as A) | A (a compound having 10 or more and less than 20 is denoted as A) |  | 11.6 | 0.092 |  |  |  |  |  |
| C#CC[C@H]1C(=O)N[C@@H]([C@@H](C)CC)C(=O)N(C)CC(=O)N(C)[C@H]2C/C=C\CCN(C2=O)[C@@H](Cc2ccc(C(F)(F)F)cc2)C(=O)N(C)CC(=O)N[C@@H](CCc2ccc(C(F)(F)F)c(OC)c2)C(=O)N2C[C@@H](C)C[C@H]2C(=O)NC2(CCC2)C(=O)N(C)[C@@H](C2CCCC2)C(=O)N(C)[C@H](C(=O)N(C)CCC)CC(=O)N1C [PP2063] |  |  |  | 13.6 |  | A (a compound having 10 or more and less than 20 is denoted as A) | AA (a compound having 20 or more is denoted as AA) | 0.09 |  |  |
| CCO[C@@H]1C[C@H]2C(=O)NC3(CC(C)(C)C3)C(=O)N(C)[C@@H](C3CCCC3)C(=O)N(C)[C@@H](C(C)C)CC(=O)N(C)[C@@H](CC3CC3)C(=O)N[C@@H]([C@@H](C)CC)C(=O)N(C)CC(=O)N(C)[C@H]3C/C=C\CCN(C3=O)[C@@H](Cc3ccc(C(F)(F)F)cc3)C(=O)N(C)CC(=O)N[C@@H](CCc3cc(F)c(C(F)(F)F)c(F)c3)C(=O)N2C1 [PP1594] |  |  |  | 48.8 |  |  |  | 0.71 | A (a compound having 10 or more and less than 20 is denoted as A) | A (a compound having 10 or more and less than 20 is denoted as A) |
| CCO[C@@H]1C[C@H]2C(=O)NC3(CCC3)C(=O)N(C)[C@@H](C3CCCC3)C(=O)N(C)[C@H](C(=O)N(C)C)CC(=O)N(C)[C@@H](Cc3ccccc3C)C(=O)N[C@@H]([C@@H](C)CC)C(=O)N(C)CC(=O)N(C)[C@H]3CCCCCN(C3=O)[C@@H](Cc3ccc(C(F)(F)F)cc3)C(=O)N(C)CC(=O)N[C@@H](CCc3cc(F)c(C(F)(F)F)c(F)c3)C(=O)N2C1 [PP0941] | B (a compound having 3 or more and less than 10 is denoted as B) | B (a compound having 3 or more and less than 10 is denoted as B) | 1.2 | 63.9 |  |  |  |  |  |  |
